Data published in paper PMC9781003, “Two Antenna-Enriched Odorant Binding Proteins in Dioryctria abietella Tuned to General Odorants and Insecticides” (Insects, 2022).
Like-named read-outs stand apart in the source and are kept apart here.

Tests used:
DabiOBP14 = assay type: binding, Dioryctria abietella; details: for Ki: competitive displacement of 1-NPN, three replicates, mean ± SE, read-out: OBP14 Ki (dissociation constant)
Description: (§1) In the binding assays, we selected 100 compounds derived from host/non-host plants and man-made insecticides widely used for the control of lepidopteran pests, representing 88 general odorants (21 esters, 21 alcohols, 14 aldehydes, 13 alkenes, seven ketones, 11 alkanes and one acid) and 12 insecticides. These compounds and N-phenyl-1-naphthylamine (1-NPN) were purchased from Aladdin and Sigma-Aldrich, with the highest available purity. They were first diluted into 100 mM, using methanol (HPLC purity grade, ≥99.9%) as a stock solution. The concentrations of the work solution for each ligand and 1-NPN were set at 1 mM.
In order to measure the binding properties of the DabiOBPs to the 100 ligands, competitive binding assays were performed on a RF5301PC fluorescence spectrophotometer (Shimadzu, Japan). The concentrations of DabiOBPs and the fluorescent probe 1-NPN were set at 2 μM. The binding of DabiOBPs to 1-NPN in 20 mM Tris-HCl buffer (pH 7.4) was measured by adding final concentrations of 2–16 μM 1-NPN. Accordingly, binding constants (K1-NPN) of the DabiOBPs and 1-NPN were calculated using GraphPad Prism 7 (GraphPad Software Inc., San Diego, CA). The binding of the DabiOBPs to various ligands was conducted by adding different concentrations of ligands (2, 4, 6, 8, 12, 16 and 20 μM) into the DabiOBP5/1-NPN (each 2 μM) or DabiOBP14/1-NPN (each 2 μM) mixtures. For the ligands replacing over a half of 1-NPN fluorescence (50%) at 20 μM, three replicates were performed. The excitation wavelength was set at 337 nm and the emission peaks were recorded at around 400 nm. The dissociation constants (Ki) of the tested ligands to DabiOBPs were computed, using the equation: Ki = [IC50]/(1 + [1-NPN]/K1-NPN), where [1-NPN] was the free concentration of 1-NPN and IC50 was the concentration of ligands replacing 50% of 1-NPN fluorescence.

DabiOBP5 = target: T1, DabiOBP5 (Dioryctria abietella, UniProt A0A8E6HS34); test: Competitive fluorescence binding assay with 1-NPN probe, recombinant DabiOBP5
T1 sequence (A0A8E6HS34 19-139): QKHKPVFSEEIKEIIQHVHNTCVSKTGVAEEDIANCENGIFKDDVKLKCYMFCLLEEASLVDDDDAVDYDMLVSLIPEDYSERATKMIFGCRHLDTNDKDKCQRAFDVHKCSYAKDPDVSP
From the text: as §1, with “They were first diluted into 100 mM, using methanol (HPLC purity grade, ≥99.9%) as a stock solution.” left out
In order to measure the binding properties of the DabiOBPs to the 100 ligands, competitive binding assays were performed on a RF5301PC fluorescence spectrophotometer (Shimadzu, Japan). The concentrations of DabiOBPs and the fluorescent probe 1-NPN were set at 2 μM. […] Accordingly, binding constants (K1-NPN) of the DabiOBPs and 1-NPN were calculated using GraphPad Prism 7 (GraphPad Software Inc., San Diego, CA). […] For the ligands replacing over a half of 1-NPN fluorescence (50%) at 20 μM, three replicates were performed. The excitation wavelength was set at 337 nm and the emission peaks were recorded at around 400 nm.

[1] = ligand at 20 μM, DabiOBP14/1-NPN each 2 μM, Tris-HCl pH 7.4, NB = no binding
[2] = ligand at 20 μM; DabiOBP5/1-NPN each 2 μM; Tris-HCl pH 7.4; NB = no binding; read-out: OBP5 F.D. (%) fluorescence displacement percent
[3] = ligand at 20 μM; DabiOBP5/1-NPN each 2 μM; Tris-HCl pH 7.4; NB = no binding
[4] = pH 7.4, read-out: OBP5 F.D. (%) fluorescence displacement percent
[5] = read-out: OBP5 Ki (dissociation constant); competitive displacement of 1-NPN; three replicates; mean ± SE

Row | SMILES | OBP14 F.D. (%) fluorescence displacement percent (DabiOBP14; [1]) | inhibition at 20 µM (DabiOBP5; [2]) | further results
1 | CC(C)=CCCC(C)=CC=O (mixture of isomers) [Citral] | 32.25% | 39% | 
2 | C=CC(C)(O)CCC=C(C)CCC=C(C)C (mixture of isomers) [Nerolidol] | 37.52% | 34.6% | 
3 | CCCCCCCCCCO [1-Decanol] | 31.32% | 31.4% | 
4 | CCCCCCCCCCCCO [1-Dodecanol] | 28.55% | 38.7% | 
5 | CCCCCCCO [1-Heptanol] | 39.10% | 39.3% | 
6 | CCCCCCCCCCCCCCCCO [1-Hexadecanol] | 31.97% | 37% | 
7 | CCCCCCO [1-Hexanol] | 40.27% | 38.9% | 
8 | c1ccc(Nc2cccc3ccccc23)cc1 [1-NPN, N-phenyl-1-naphthylamine] |  |  | Kd (DabiOBP14; 2 μM protein, 2–16 μM 1-NPN, 20 mM Tris-HCl pH 7.4, read-out: K1-NPN binding constant of DabiOBP14 and 1-NPN): 4.5 ± 0.42 µM; Kd (DabiOBP5; 2 μM protein, 2–16 μM 1-NPN, 20 mM Tris-HCl pH 7.4; read-out: K1-NPN binding constant of DabiOBP5 and 1-NPN): 7.49 ± 0.69 µM
9 | CCCCCCCCCO [1-Nonanol] | 29.98% | 39.6% | 
10 | CCCCCCCCO [1-Octanol] | 35.51% | 35% | 
11 | CCCCCCCCCCCO [1-Undecanol] |  | 37.7% | 
12 | C=CCCCCCCCCC [1-Undecene] |  | 17.4% | 
13 | CCCCCC(C)O (stereo not shown) [2-Heptanol] | 24.86% | 13.9% | 
14 | CCCCCC(C)=O [2-Heptanone] | 33.53% | 36.5% | 
15 | CCCCC(C)=O [2-Hexanone] | 27.57% | 43.1% | 
16 | CCC(C)CO (stereo not shown) [2-Methyl-1-butanol] | 27.78% | 36% | 
17 | CCCCCCCCCCCC(C)=O [2-Tridecanone] | 32.61% | 35.6% | 
18 | CC1=CCC2C(C1)C2(C)C (stereo not shown) [3-Carene] | 29.92% | 41.6% | 
19 | CCCC(=O)CC [3-Hexanone] | 36.58% | 25.3% | 
20 | CC(C)=CCO [3-Methyl-2-buten-1-ol] | 34.58% | 37% | 
21 | CCCCC=CCCO [3-Octenol] | 31.31% | 25.1% | 
22 | CC(C)=CCCC(C)O (stereo not shown) [6-Methyl-5-hepten-2-ol] | 33.49% | 41.4% | 
23 | CC(=O)CCC=C(C)C [6-Methyl-5-hepten-2-one] | 34.39% | 40.3% | 
24 | CC(=O)c1ccccc1 [Acetophenone] | 36.22% | 38.8% | 
25 | CCCCCOC(C)=O [Amyl acetate] | 25.00% |  | OBP5 F.D. (%) fluorescence displacement percent (DabiOBP5; [3]): 26.33%
26 | O=Cc1ccccc1 [Benzaldehyde] | 38.35% | 36.8% | 

Row | SMILES | OBP14 F.D. (%) fluorescence displacement percent (DabiOBP14; [1]) | inhibition at 20 µM (DabiOBP5; [2]) | further results
27 | O=C(OCc1ccccc1)c1ccccc1 [Benzyl benzoate] | 49.39% | 47.8% | 
28 | CCCCOC(C)=O [Butyl acetate] |  | 31.6% | OBP14 F.D. (%) fluorescence displacement percent (DabiOBP14; pH 7.4): 0.16%
29 | O=C(NC(=O)c1ccccc1Cl)Nc1ccc(Cl)cc1 [Chlorbenzuron] | 47.43% |  | OBP5 F.D. (%) fluorescence displacement percent (DabiOBP5; [3]): 39.11%
30 | CCOCn1c(-c2ccc(Cl)cc2)c(C#N)c(Br)c1C(F)(F)F [Chlorfenapyr] | 60.84% |  | Ki (DabiOBP14; listed as chlorfenapyr): < 13 µM; Ki (DabiOBP14): 8.41 ± 0.42 µM; inhibition at 20 µM (DabiOBP5; [4]): 62%; Ki (DabiOBP5; [5]): 8.16 ± 0.55 µM; Ki (DabiOBP5; read-out: OBP5 Ki (dissociation constant); competitive displacement of 1-NPN; three replicates; mean ± SE; listed as chlorfenapyr): < 13 µM
31 | CCOP(=S)(OCC)Oc1nc(Cl)c(Cl)cc1Cl [Chlorpyrifos] | 72.41% |  | Ki (DabiOBP14; listed as chlorpyrifos): < 13 µM; Ki (DabiOBP14): 4.62 ± 0.46 µM; inhibition at 20 µM (DabiOBP5; [4]): 66.1%; Ki (DabiOBP5; [5]): 5.92 ± 0.48 µM; Ki (DabiOBP5; read-out: OBP5 Ki (dissociation constant); competitive displacement of 1-NPN; three replicates; mean ± SE; listed as chlorpyrifos): < 13 µM
32 | CCCCCCCCCC=O [Decanal] | 21.35% | 29.1% | 
33 | CCCCCCCCCC [Decane] |  | 20.2% | 
34 | CCCCCCCCCCOC(C)=O [Decyl acetate] | 15.15% | 26.2% | 
35 | CC1(C)[C@H](C(=O)O[C@H](C#N)c2cccc(Oc3ccccc3)c2)[C@@H]1C=C(Br)Br [Deltamethrin] | 38.21% | 28.5% | 
36 | O=C(NC(=O)c1c(F)cccc1F)Nc1ccc(Cl)cc1 [Diflubenzuron] | 30.33% | 21.4% | 
37 | CCCCCCCCCCCC=O [Dodecanal] | 3.43% | 30.6% | 
38 | CCCCCCCCCCCC [Dodecane] | 17.71% | 31.9% | 
39 | CCC/C=C/CO [E2-Hexen-1-ol] | 18.64% |  | OBP5 F.D. (%) fluorescence displacement percent (DabiOBP5; [3]): 36.50%
40 | CCC/C=C/C=O [E2-Hexenal] | 32.34% |  | OBP5 F.D. (%) fluorescence displacement percent (DabiOBP5; [3]): 33.10%
41 | CCOC(C)=O [Ethyl acetate] | 23.29% | 19% | 
42 | CCOC(=O)c1ccccc1 [Ethyl benzoate] | 30.02% | 29.4% | 
43 | CCCC(=O)OCC [Ethyl butyrate] | 31.72% | 32% | 
44 | CCCCCC(=O)OCC [Ethyl hexanoate] | 29.43% | 24.2% | 
45 | CCCCC/C=C\C=C\C(=O)OCC [Ethyl-(2E,4Z)-decadienoate] | 68.07% |  | Ki (DabiOBP14; listed as ethyl-(2E,4Z)-decadienoate): < 13 µM; Ki (DabiOBP14): 6.45 ± 0.43 µM; Ki (DabiOBP5; competitive displacement of 1-NPN; three replicates; mean ± SE; listed as ethyl-(2E,4Z)-decadienoate; read-out: OBP5 Ki (dissociation constant)): < 13 µM; Ki (DabiOBP5; competitive displacement of 1-NPN; three replicates; mean ± SE; read-out: OBP5 Ki (dissociation constant)): 5.67 ± 0.55 µM; OBP5 F.D. (%) fluorescence displacement percent (DabiOBP5; [3]): 69.83%
46 | CC(C)=CCC/C(C)=C/CC/C(C)=C/CO [Farnesol] | 36.20% | 36.3% | 
47 | CCCCCCCCC [Nonane] |  | 22.2% | 
48 | CCCCCCCC [Octane] |  | 27.9% | 
49 | CCCCCCCCCCCCC [Tridecane] |  | 5.52% | 
50 | C/C1=C\CC/C(C)=C/CC(C)(C)/C=C/C1 [α-Caryophyllene] |  |  | OBP5 F.D. (%) fluorescence displacement percent (DabiOBP5; [3]): 15.42%
51 | C=C1CC/C=C(\C)CC[C@@H]2[C@@H]1CC2(C)C [β-Caryophyllene] |  | 16.3% | 
